Measured values from publication PMC7318554 (Journal of medicinal chemistry, 2020).
Where two headings read alike, the source gives them in different places.

What was measured:
p-EGFR, p-AKT [1] = experiment: Western blotting of downstream signaling; assay type: cell-based
EGFR L858R [2] = molecular target: T1, EGFR L858R (Homo sapiens, UniProt P00533, L858R); experiment: Western blotting of EGFR protein in H3255 cells; assay type: cell-based; details: for reversibility of EGFR degradation upon washout / maximum EGFR protein degradation / hook effect / effect on mutant EGFR protein level: H3255 cells; for reversibility of EGFR degradation upon washout: 12 h degrader treatment, then washout; for maximum EGFR protein degradation: at a concentration as low as 50 nM, 16 h; for hook effect: highest concentration 10 μM (PROTAC3: 1 and 10 μM); for effect on mutant EGFR protein level: 8 h serum-free, 16 h treatment, gefitinib at 1 μM
WT EGFR [3] = molecular target: T2, WT EGFR (Homo sapiens, UniProt P00533); experiment: Western blotting of WT EGFR protein in H1299 cells; assay type: cell-based; details: 8 h serum-free, 16 h treatment
EGFR = EGFR (Homo sapiens, UniProt P00533, DEL746-750); experiment: Global label-free quantitative proteomics in HCC-827 cells; assay type: cell-based; details: HCC-827 cells starved 8 h; 100 nM for 16 h
[4] = Mouse pharmacokinetic study; details: mice; single IP injection 50 mg/kg
p-EGFR, p-AKT [5] = experiment: Western blotting of downstream signaling; assay type: cell-based; remark: listed apart in the source
EGFR L858R [6] = molecular target: T1, EGFR L858R; experiment: KINOMEscan competition binding assay, EGFR L858R; details: EGFR L858R mutant
H3255 cells = experiment: Cell proliferation assay; assay type: cell-based; details: 3 days
[7] = molecular target: EGFR e19d (EGFR mutant with exon 19 deletion) (Homo sapiens, UniProt P00533, DEL746-750); experiment: Western blotting of EGFR protein in HCC-827 cells; assay type: cell-based; details: for time after washout at which the EGFR protein level was recovered: 12 h degrader treatment, then washout; for maximum EGFR protein degradation: at a concentration as low as 50 nM, 16 h; for hook effect: highest concentration 10 μM (PROTAC3: 1 and 10 μM)
WT EGFR [8] = molecular target: T2, WT EGFR; experiment: Western blotting of WT EGFR protein in OVCAR-8 cells; assay type: cell-based; details: 8 h serum-free, 16 h treatment
in vivo = details: male, Swiss Albino, mouse, ip, 50 mg/kg
EGFR WT = EGFR WT (Homo sapiens, UniProt P00533); experiment: KINOMEscan competition binding assay, EGFR WT
WT EGFR [9] = molecular target: T2, WT EGFR; details: previous finding; cited from earlier work
[10] = 100 nM, after 8 h serum starvation
[11] = HCC-827 cells, 12 h degrader treatment, then washout
[12] = HCC-827 cells, 16 h treatment, gefitinib at 1 μM
[13] = H3255 cells, 16 h treatment, gefitinib at 1 μM

Which “effect on AKT protein levels” value (p-EGFR, p-AKT [1]) does the source give for `COc1cc2ncnc(Nc3ccc(F)c(Cl)c3)c2cc1OCCCN1CCN(C(=O)CCCCCCCCCC(=O)N[C@H](C(=O)N2C[C@H](O)C[C@H]2C(=O)NCc2ccc(-c3scnc3C)cc2)C(C)(C)C)CC1` [Compound 6, (2S,4R)-1-((S)-2-(11-(4-(3-((4-((3-Chloro-4-fluorophenyl)amino)-7-methoxyquinazolin-6-yl)oxy)propyl)piperazin-1-yl)-11-oxounde-canamido)-3,3-dimethylbutanoyl)-4-hydroxy-N-(4-(4-methylthiazol-5-yl)benzyl)pyrrolidine-2-carboxamide] here?
The value was “did not affect the AKT protein levels”.

And the “inhibition of EGFR autophosphorylation (p-EGFR) and AKT phosphorylation (p-AKT)” value (“inhibition of EGFR autophosphorylation … (p-AKT)” below) (p-EGFR, p-AKT [1])?
Its value is “potently inhibited”.

And the “time after washout at which p-AKT was recovered” value (p-EGFR, p-AKT [1])?
The value was 48 h.

What about the “time after washout at which p-EGFR was recovered” value (p-EGFR, p-AKT [1]) of the same compound?
The value was 24 h.

What about the “treatment time at which robust inhibition of p-AKT was observed” value (p-EGFR, p-AKT [1]) of the same compound?
Its value is 1 h.

What about the “reversibility of EGFR degradation upon washout” value (EGFR L858R [2]) of the same compound?
The value was “reversible”.

And the “maximum EGFR protein degradation” value (EGFR L858R [2])?
Its value is “over 95%”.

What about the hook effect (EGFR L858R [2]) of the same compound?
Its hook effect is “undetectable”.

And the “effect on WT EGFR protein levels” value (WT EGFR [3])?
The value was “did not significantly reduce the WT EGFR protein levels”.

What about the EGFR protein degraded (EGFR) of the same compound?
The EGFR protein degraded was “Over 75%”.

And the “plasma concentration maintained over 8 h” value [4]?
Its value is “approximately 5 μM”.

What about the tolerability [4] of the same compound?
The tolerability was “well tolerated, and no clinical signs were observed”.

And the “effect on AKT protein levels” value (p-EGFR, p-AKT [5])?
The value was “did not affect the AKT protein levels”.

What about the “inhibition of EGFR autophosphorylation … (p-AKT)” value (p-EGFR, p-AKT [5]) of the same compound?
Its value is “potently inhibited”.

And the “weaker binding affinity compared to gefitinib” value (EGFR L858R [6])?
Its value is “approximately 10 fold”.

And the cell growth inhibition (H3255 cells)?
Its cell growth inhibition is “effectively inhibited the growth of H3255 cells”.

And the “potency at cell growth inhibition compared with PROTAC3” value (H3255 cells)?
The value was “more potent than the previously reported PROTAC3”.

What about the “potency at cell growth inhibition compared with gefitinib” value (H3255 cells) of the same compound?
Its value is “less potent”.

What about the “treatment time to near-complete / maximum EGFR degradation” value [7, 10] of the same compound?
The value was “around 12 h”.

And the “time after washout at which the EGFR protein level was recovered” value [7]?
Its value is 24 h.

What about the “maximum EGFR protein degradation” value [7] of the same compound?
The value was “over 95%”.

And the hook effect [7]?
Its hook effect is “slight “hook effect””.

What about the “effect on WT EGFR protein levels” value (WT EGFR [8]) of the same compound?
Its value is “did not significantly reduce the WT EGFR protein levels”.

What about the concentration at 24 h (in vivo) of the same compound?
Its concentration at 24 h is ~1000 nM.

And the “weaker binding affinity compared to gefitinib” value (EGFR WT)?
The value was “approximately 10 fold”.

With `COc1cc2ncnc(Nc3ccc(F)c(Cl)c3)c2cc1OCCCN1CCN(CCC(=O)NCCCCCCCCOc2cccc3c2C(=O)N(C2CCC(=O)NC2=O)C3=O)CC1` (centres unmarked) [Compound 10, 3-(4-(3-((4-((3-Chloro-4-fluorophenyl)amino)-7-methoxyquinazolin-6-yl)oxy)propyl)piperazin-1-yl)-N-(8-((2-(2,6-dioxopiperidin-3-yl)-1,3-dioxoisoindolin-4-yl)oxy)octyl)propanamide] as the compound, how does the “effect on AKT protein levels” value (p-EGFR, p-AKT [1]; HCC-827 cells) read?
Its value is “did not affect the AKT protein levels”.

And the “time after washout at which p-AKT was recovered” value (p-EGFR, p-AKT [1]; [11])?
The value was 48 h.

And the “time after washout at which p-EGFR was recovered” value (p-EGFR, p-AKT [1]; [11])?
Its value is 24 h.

What about the “inhibition of EGFR autophosphorylation … (p-AKT)” value (p-EGFR, p-AKT [1]; [12]) of the same compound?
Its value is “potently inhibited”.

And the “reversibility of EGFR degradation upon washout” value (EGFR L858R [2])?
The value was “reversible”.

What about the “maximum EGFR protein degradation” value (EGFR L858R [2]) of the same compound?
Its value is “over 95%”.

And the hook effect (EGFR L858R [2])?
Its hook effect is “undetectable”.

And the “effect on WT EGFR protein levels” value (WT EGFR [3])?
Its value is “did not significantly reduce the WT EGFR protein levels”.

And the EGFR protein degraded (EGFR)?
The EGFR protein degraded was “Over 75%”.

What about the highest plasma concentration [4] of the same compound?
The highest plasma concentration was “approximately 500 nM”.

And the “time post dosing of the highest plasma concentration” value [4]?
The value was 8 h.

What about the tolerability [4] of the same compound?
Its tolerability is “well tolerated, and no clinical signs were observed”.

And the “effect on AKT protein levels” value (p-EGFR, p-AKT [5]; H3255 cells)?
The value was “did not affect the AKT protein levels”.

And the “inhibition of EGFR autophosphorylation … (p-AKT)” value (p-EGFR, p-AKT [5]; [13])?
Its value is “potently inhibited”.

And the “weaker binding affinity compared to gefitinib” value (EGFR L858R [6])?
The value was 5 fold.

And the cell growth inhibition (H3255 cells)?
Its cell growth inhibition is “inhibited the growth of H3255 cell”.

And the “potency at cell growth inhibition compared with PROTAC3” value (H3255 cells)?
Its value is “not as potent as compound 6 and PROTAC3”.

And the “potency at cell growth inhibition compared with gefitinib” value (H3255 cells)?
The value was “less potent”.

And the “time to reduce the half-maximum of the EGFR protein level” value [7, 10]?
Its value is 3.5 h.

What about the “treatment time to near-complete / maximum EGFR degradation” value [7, 10] of the same compound?
The value was 12 h.

What about the “time after washout at which the EGFR protein level was recovered” value [7] of the same compound?
Its value is 24 h.

What about the “maximum EGFR protein degradation” value [7] of the same compound?
The value was “over 95%”.

And the hook effect [7]?
The hook effect was “slight “hook effect””.

And the “effect on WT EGFR protein levels” value (WT EGFR [8])?
The value was “did not significantly reduce the WT EGFR protein levels”.

What does the source list for `COc1cc2ncnc(Nc3ccc(F)c(Cl)c3)c2cc1OCCCN1CCN(C(=O)CCCCCCCCCC(=O)N[C@H](C(=O)N2C[C@@H](O)C[C@@H]2C(=O)NCc2ccc(-c3scnc3C)cc2)C(C)(C)C)CC1` [Compound 27, (2R,4S)-1-((S)-2-(11-(4-(3-((4-((3-Chloro-4-fluorophenyl)amino)-7-methoxyquinazolin-6-yl)oxy)propyl)piperazin-1-yl)-11-oxoundecanamido)-3,3-dimethylbutanoyl)-4-hydroxy-N-(4-(4-methylthiazol-5-yl)benzyl)pyrrolidine-2-carboxamide]?
inhibition of EGFR autophosphorylation (p-EGFR) and AKT phosphorylation (p-AKT) (p-EGFR, p-AKT [1]): lower potency; effect of 2 h pretreatment on EGFR degradation induced by compound 6 (EGFR L858R [2]): blocked; effect on mutant EGFR protein level (EGFR L858R [2]): did not significantly induce the degradation of EGFR mutants; inhibition of EGFR autophosphorylation (p-EGFR) and AKT phosphorylation (p-AKT) (p-EGFR, p-AKT [5]): lower potency

With `COc1cc2ncnc(Nc3ccc(F)c(Cl)c3)c2cc1OCCCN1CCN(CCC(=O)NCCCCCCCCOc2cccc3c2C(=O)N(C2CCC(=O)N(C)C2=O)C3=O)CC1` (centres unmarked) [Compound 28, 3-(4-(3-((4-((3-Chloro-4-fluorophenyl)amino)-7-methoxyquina-zolin-6-yl)oxy)propyl)piperazin-1-yl)-N-(8-((2-(1-methyl-2,6-dioxopiperidin-3-yl)-1,3-dioxoisoindolin-4-yl)oxy)octyl)propanamide] as the compound, how does the “inhibition of EGFR autophosphorylation … (p-AKT)” value (p-EGFR, p-AKT [1]; [12]) read?
Its value is “lower potency”.

And the “effect on mutant EGFR protein level” value (EGFR L858R [2])?
The value was “did not significantly induce the degradation of EGFR mutants”.

And the “inhibition of EGFR autophosphorylation … (p-AKT)” value (p-EGFR, p-AKT [5]; [13])?
The value was “lower potency”.

With `COc1cc2ncnc(Nc3ccc(F)c(Cl)c3)c2cc1OCCCCCOCCOCCC(=O)N[C@H](C(=O)N1C[C@H](O)C[C@H]1C(=O)NCc1ccc(-c2scnc2C)cc1)C(C)(C)C` [PROTAC3, reference compound] as the compound, how does the hook effect (EGFR L858R [2]) read?
Its hook effect is “much more significant hook effect”.

And the “potency at cell growth inhibition compared with gefitinib” value (H3255 cells)?
The value was “less potent”.

What about the “degradation of the WT EGFR” value (WT EGFR [9]) of the same compound?
The value was “did not degrade the WT EGFR”.

What about the hook effect [7] of the same compound?
Its hook effect is “much more significant hook effect”.

For `Cc1ncsc1-c1ccc(CNC(=O)[C@@H]2C[C@@H](O)CN2C(=O)[C@@H](NC(=O)C2(C#N)CC2)C(C)(C)C)cc1` [VH-298, reference compound], which “effect of 2 h pretreatment on EGFR degradation induced by compound 6” value (EGFR L858R [2]) is on record?
Its value is “blocked”.

Which “effect of 2 h pretreatment on EGFR degradation induced by compound 10” value (EGFR L858R [2]) does the source give for `O=C1CCC(N2C(=O)c3ccccc3C2=O)C(=O)N1` (centres unmarked) [thalidomide, reference compound] here?
Its value is “blocked”.
